For one compound, Kd results are on record in paper PMC12114683, “The Molecular Chaperone TCP1 Affects Carcinogenicity and Is a Potential Therapeutic Target for Acute Myeloid Leukemia” (Pharmaceutics, 2025).

pKd: −log10 of the molar value.

The assay deals with T1, TCP1 (Homo sapiens, UniProt P17987).
T1 construct: commercial recombinant TCP1 (Abnova), isolated subunit, amine-coupled to CM5 chip; PDB 4B2T was only the docking model
Nature of the assay: SPR (Biacore T200, CM5 chip, TCP1 amine-coupled). Type of assay: binding. On the technique in general: In SPR one partner is held on a chip, and binding of the other changes the refractive index at the surface.

T1 sequence (P17987 whole entry): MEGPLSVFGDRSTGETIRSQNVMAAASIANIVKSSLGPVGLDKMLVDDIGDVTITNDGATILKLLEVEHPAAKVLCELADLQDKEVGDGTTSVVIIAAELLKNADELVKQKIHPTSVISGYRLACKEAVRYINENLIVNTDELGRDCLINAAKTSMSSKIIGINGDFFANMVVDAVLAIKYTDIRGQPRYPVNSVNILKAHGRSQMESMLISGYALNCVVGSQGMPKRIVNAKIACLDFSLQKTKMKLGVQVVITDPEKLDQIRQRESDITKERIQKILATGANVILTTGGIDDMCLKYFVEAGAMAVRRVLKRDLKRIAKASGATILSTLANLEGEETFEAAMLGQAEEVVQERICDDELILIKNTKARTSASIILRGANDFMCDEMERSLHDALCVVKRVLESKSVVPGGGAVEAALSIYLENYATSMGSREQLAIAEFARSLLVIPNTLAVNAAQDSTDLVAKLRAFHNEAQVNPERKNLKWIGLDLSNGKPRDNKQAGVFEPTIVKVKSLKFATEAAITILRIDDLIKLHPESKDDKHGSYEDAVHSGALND

Turning to `CCCCCCCCc1ccc(CCC(N)(CO)CO)cc1` [FTY720], the pKd (as a rule, the Kd on a negative log10 scale, so that one unit is a factor of ten) was 8.17.
